Data taken from ChEMBL document CHEMBL1201862, “PubChem BioAssay data set” (2004).
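Cultured in 96-well plates, cells were exposed to test compound for 48 hours across five concentrations. GI50 is the concentration that inhibits growth by half.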 Activity calls are given as the source filed them. Cut-off read from the data, not from the text of the source: active = GI50 up to about 1.1 µM and inactive = higher.

Assays:
Assay in all cases: NCI-60 cell line screen, 48 h
[1] = test system: A498
[2] = test system: A549
[3] = test system: CAKI-1
[4] = test system: HCC 2998
[5] = test system: HCT-116
[6] = test system: HOP-92
[7] = test system: Malme-3M
[8] = test system: NCI-H522
[9] = test system: OVCAR-8
[10] = test system: RPMI-8226
[11] = test system: SF-268
[12] = test system: SK-MEL-28
[13] = test system: SK-MEL-5
[14] = test system: SNB-75
[15] = test system: TK-10
[16] = test system: UACC-62
[17] = test system: SK-MEL-2

Measured: GI50

O=C(/C=C/c1ccc(Cl)c(Cl)c1)c1ccc(F)cc1
inactive: [1] 50.9 µM | [2] 42.8 µM | [3] 18.5 µM | [4] 16.6 µM | [5] 7.67 µM | [6] 32.2 µM | [7] 34.3 µM | [8] 4.45 µM | [9] 16.7 µM | [10] 3.3 µM | [11] 28.2 µM | [12] 18.6 µM | [13] 19.9 µM | [14] 22.9 µM | [15] 25.4 µM | [16] 14.7 µM

COCOCCC#CCO
inactive: [1] > 100 µM | [2] > 100 µM | [4] > 100 µM | [5] 88.9 µM | [6] > 100 µM | [7] > 100 µM | [8] 68.4 µM | [9] > 100 µM | [10] > 100 µM | [11] > 100 µM | [12] > 100 µM | [17] > 100 µM | [13] 72.8 µM | [14] > 100 µM | [15] > 100 µM | [16] > 100 µM

O=C(Cn1ccnc1[N+](=O)[O-])NCc1ccc(F)cc1
inactive: [1] > 100 µM | [2] > 100 µM | [3] > 100 µM | [6] > 100 µM | [7] > 100 µM | [8] > 100 µM | [9] > 100 µM | [10] > 100 µM | [11] > 100 µM | [12] > 100 µM | [17] > 100 µM | [13] > 100 µM | [14] 68.9 µM | [15] > 100 µM | [16] > 100 µM

Cc1cc2c(cc1C)[n+]([O-])c(C(=O)CC(=O)C(=O)Nc1c(C(C)C)cccc1C(C)C)c(C)[n+]2[O-]
inactive: [1] > 100 µM | [2] > 100 µM | [3] > 100 µM | [4] > 100 µM | [5] > 100 µM | [6] > 100 µM | [7] > 100 µM | [8] > 100 µM | [9] > 100 µM | [10] > 100 µM | [11] > 100 µM | [12] > 100 µM | [17] > 100 µM | [13] > 100 µM | [14] > 100 µM | [15] > 100 µM | [16] > 100 µM

C=CCCCCCCCCCP(=O)(c1ccccc1)c1ccc2c(c1)OCCOCCOCCOCCO2 (centres undefined)
inactive: [1] 14.2 µM | [2] 14.6 µM | [3] > 100 µM | [4] 17.3 µM | [5] 10.4 µM | [6] > 100 µM | [7] 17.7 µM | [8] 12.1 µM | [9] 15.9 µM | [10] 11.7 µM | [11] 15.3 µM | [12] 16.3 µM | [17] 18 µM | [13] 11.3 µM | [14] 18.5 µM | [15] 18.4 µM | [16] 15.7 µM

CCCCCCNC(=O)CCN(C(=O)O)S(=O)(=O)c1ccc(NC(=O)c2ccccc2)cc1
inactive: [1] > 100 µM | [2] > 45.7 µM | [3] > 100 µM | [4] > 100 µM | [5] 39 µM | [6] > 100 µM | [7] > 100 µM | [8] > 20 µM | [9] > 61.2 µM | [10] 26.4 µM | [11] > 78.9 µM | [12] > 100 µM | [17] > 100 µM | [13] > 100 µM | [14] > 100 µM | [15] > 100 µM | [16] > 44.6 µM

CC1C(O)=C(O)c2ccccc2N1O (centres undefined)
inactive: [1] > 100 µM | [2] > 100 µM | [3] > 100 µM | [4] > 100 µM | [5] 49.8 µM | [6] 31.9 µM | [7] > 100 µM | [8] 25.1 µM | [9] > 100 µM | [10] 80.4 µM | [11] > 100 µM | [12] > 100 µM | [17] > 100 µM | [13] > 100 µM | [14] > 100 µM | [15] > 100 µM | [16] > 100 µM

CC1=NN(C(=O)Nc2ccc(Cl)cc2)C(=O)C2CCC(=O)N12 (centres undefined)
inactive: [1] > 100 µM | [2] 49.3 µM | [3] 60.3 µM | [4] > 100 µM | [5] > 100 µM | [6] > 100 µM | [9] > 100 µM | [10] 93.3 µM | [11] 45.3 µM | [12] > 100 µM | [17] > 100 µM | [13] 87.3 µM | [14] > 100 µM | [15] > 100 µM | [16] 2.2 µM

CCOc1ccc(NC(=O)C2=C(C)NC(C)=C(C(=O)Nc3ccc(OCC)cc3)C2c2ccc(O)c(OC)c2)cc1
inactive: [1] 19.3 µM | [2] > 100 µM | [3] > 100 µM | [4] 2.35 µM | [6] 20.4 µM | [7] 64.1 µM | [8] 56.6 µM | [9] 87.3 µM | [10] 28.6 µM | [11] > 100 µM | [12] 53.2 µM | [17] 64.6 µM | [13] 46 µM | [14] 14.3 µM | [15] > 100 µM

CC1=C(C(=O)CC(=O)C(=O)Nc2ccccc2)Sc2ccccc2N1
inactive: [1] > 100 µM | [2] > 100 µM | [5] > 100 µM | [6] 2.84 µM | [7] > 100 µM | [8] > 100 µM | [9] > 100 µM | [10] > 100 µM | [11] > 100 µM | [12] > 100 µM | [17] > 100 µM | [13] > 100 µM | [16] > 100 µM

C=C(CO)CC(/C=C(\C)CC/C=C(\C)CCl)OC(C)=O (centres undefined)
inactive: [1] > 100 µM | [2] > 100 µM | [4] > 100 µM | [5] > 100 µM | [6] 5.7 µM | [8] > 100 µM | [9] > 100 µM | [10] > 100 µM | [11] > 100 µM | [12] > 100 µM | [17] > 100 µM | [13] > 100 µM | [14] > 100 µM | [15] > 100 µM | [16] > 100 µM

O=C1OCCC1(Cc1ccc(Cl)cc1)Cc1ccc(Cl)cc1
inactive: [1] 46 µM | [2] > 100 µM | [3] > 100 µM | [5] > 100 µM | [6] 30.3 µM | [7] > 100 µM | [8] > 100 µM | [9] 64.6 µM | [10] > 100 µM | [11] > 100 µM | [12] > 100 µM | [17] 71.8 µM | [14] 21.6 µM | [15] 46.8 µM | [16] > 100 µM

Cc1cc(N(CCC#N)CCC#N)ccc1/C=C(/NC(=O)/C=C/c1ccccc1)C(N)=O
inactive: [1] > 100 µM | [2] > 100 µM | [3] > 100 µM | [4] > 100 µM | [5] > 100 µM | [7] > 100 µM | [8] 13.8 µM | [9] > 100 µM | [10] > 100 µM | [11] > 100 µM | [12] > 100 µM | [17] > 100 µM | [13] > 100 µM | [14] > 100 µM | [15] > 100 µM | [16] > 100 µM
